# Active and inactive are the calls of the source. No cut-off for these calls is given here.
# Tests used:
# Acinetobacter baumannii = experiment: Antibacterial activity against Acinetobacter baumannii R2889 assessed as inhibition of bacterial growth incubated for 24 hrs by CLSI based broth dilution method; format: functional
# Staphylococcus aureus [1] = experiment: Antibacterial activity against Staphylococcus aureus ATCC 29213 assessed as fold increase in MIC incubated for 24 hrs in presence of 4.5 mM K+ by CLSI based broth dilution method; format: functional
# Staphylococcus aureus [2] = experiment: Antibacterial activity against Staphylococcus aureus NCTC10442 assessed as fold increase in MIC incubated for 24 hrs in presence of 140 mM Na+ by CLSI based broth dilution method; format: functional
# Staphylococcus aureus [3] = experiment: Antibacterial activity against Staphylococcus aureus NCTC10442 assessed as fold increase in MIC incubated for 24 hrs in presence of 2.5 mM Ca2+ by CLSI based broth dilution method; format: functional
# Staphylococcus aureus [4] = experiment: Antibacterial activity against Staphylococcus aureus NCTC10442 assessed as fold increase in MIC incubated for 24 hrs in presence of 1 mM Mg2+ by CLSI based broth dilution method; format: functional
# Escherichia coli [5] = experiment: Antibacterial activity against Escherichia coli ATCC 25922 assessed as fold increase in MIC incubated for 24 hrs in presence of 4.5 mM K+ by CLSI based broth dilution method; format: functional
# Cell membrane [6] = experiment: Disruption of membrane integrity in Pseudomonas aeruginosa ATCC 9027 assessed as increase in red fluorescence intensity at 8 times MIC incubated for 2 hrs by SYTO 9/PI staining based fluorescence analysis; format: subcellular
# Cell membrane [7] = experiment: Induction of outer membrane permeabilization in Escherichia coli ATCC 25922 assessed as increase in fluorescence intensity at 1 to 8 times MIC measured for 60 mins by NPN uptake assay; format: subcellular; conditions: DDE = dose-dependent effect
# Lipoteichoic acid = experiment: Displacement of BODIPY-TR-cadaverine from Bacillus subtilis Lipoteichoic acid at 4 times MIC measured for 30 mins by fluorescence based microplate reader assay relative to control
# [8] = Cytotoxicity against mouse NCTC clone 929 cells assessed as cell viability at 25 ug/ml incubated for 24 hrs by CCK-8 assay relative to control; format: toxicity, cell-based; conditions: at 25 µg/mL, read-out: Activity
# [9] = Cytotoxicity against HEK293 cells assessed as cell viability at 12.5 ug/ml incubated for 24 hrs by CCK-8 assay relative to control; format: toxicity, cell-based; conditions: human, at 12.5 µg/mL, read-out: Activity
# Escherichia coli [10] = experiment: Antibiofilm activity against Escherichia coli ATCC 25922 assessed reduction in biofilm formation at 0.39 ug/ml measured after 24 hrs by crystal violet staining based assay relative to control; format: functional; design: scale not given: the % may be the effect or the level left; conditions: dose 0.39 µg/ml
# Staphylococcus aureus [11] = experiment: Antibiofilm activity against Staphylococcus aureus ATCC 29213 assessed reduction in biofilm formation at 0.39 ug/ml measured after 24 hrs by crystal violet staining based assay relative to control; format: functional; design: scale not given: the % may be the effect or the level left; conditions: dose 0.39 µg/ml
# Staphylococcus aureus [12] = experiment: Antibiofilm activity against Staphylococcus aureus ATCC 29213 assessed reduction in biofilm formation at 6.25 ug/ml measured after 24 hrs by crystal violet staining based assay relative to control; format: functional; design: scale not given: the % may be the effect or the level left; conditions: dose 6.25 µg/ml
# Escherichia coli [13] = experiment: Antibiofilm activity against Escherichia coli ATCC 25922 assessed reduction in biofilm formation at […] ug/ml measured after 24 hrs by crystal violet staining based assay relative to control; format: functional; design: scale not given: the % may be the effect or the level left; conditions: dose […] microg/ml, 1.56 ug/mL
# Staphylococcus aureus [14] = experiment: Antibacterial activity against Staphylococcus aureus ATCC 29213 assessed as eradication of preformed bacterial biofilm by measuring residual biofilm viability at 25 ug/ml incubated for 24 hrs by crystal violet staining based assay relative to control; format: functional; conditions: dose 25 µg/ml
# Escherichia coli [15] = experiment: Antibacterial activity against Escherichia coli ATCC 25922 assessed as eradication of preformed bacterial biofilm by measuring residual biofilm viability at 6.25 ug/ml incubated for 24 hrs by crystal violet staining based assay relative to control; format: functional; conditions: dose 6.25 µg/ml
# [16] = Toxicity in C57BL/6 mouse assessed as signs of toxicity in cornea at 0.8 mg/ml, TOP administered 4 times a day for 3 consecutive days; conditions: in vivo, topical_or_ocular, 72 h, time 3 day
structure (smiles),measurement,setting,value
C=C[C@@](C)(/C=C/c1ccc(OCCCCN(CCCN(C)C)CCCN(C)C)cc1)CCC=C(C)C,MIC,Acinetobacter baumannii,3.12 µg/mL
same,fold change (FC),Staphylococcus aureus [1],<2
same,fold change (FC),Staphylococcus aureus [2],<2
same,fold change (FC),Staphylococcus aureus [3],<2
same,fold change (FC),Staphylococcus aureus [4],<2
same,fold change (FC),Escherichia coli [5],<2
same,Activity,Cell membrane [6],Active
same,Activity,Cell membrane [7],Dde
same,Activity,Lipoteichoic acid,37.2%
same,"viability at 24 h, 25 ug/ml",[8],74.1%
same,"viability at 24 h, 12.5 ug/ml",[9],84.9%
same,Activity,Escherichia coli [10],4.04%
same,Activity,Staphylococcus aureus [11],1.65%
same,Activity,Staphylococcus aureus [12],98.78%
same,Activity,Escherichia coli [13],38.45%
same,Activity,Staphylococcus aureus [14],11.49%
same,Activity,Escherichia coli [15],22.69%
same,Activity,[16],Non-Toxic

# Source: ChEMBL document CHEMBL5214900, “Design, Synthesis, and Biological Evaluation of Membrane-Active Bakuchiol Derivatives as Effective Broad-Spectrum Antibacterial Agents” (J Med Chem, 2021)
